In patent US8455467B2, “2-methylene-vitamin D analogs and their uses” (Wisconsin Alumni Research Foundation, priority 2011, dated 2013):

Key:
[1] = Bone calcium mobilization (serum calcium) in vitamin D-deficient rats; type: in vivo, rat; details: 0.02% Ca diet; for bone calcium mobilization (serum calcium) at 87 pmol: 87 pmol/day for 4 consecutive days; for bone calcium mobilization activity (serum calcium): 4 consecutive ip doses, overall, compared to 1,25(OH)2D3; for bone calcium mobilization (serum calcium) at 780 pmol: 780 pmol/day for 4 consecutive days
Protocol: (§1) Male, weanling Sprague-Dawley rats were placed on Diet 11 (Suda et al, J. Nutr. 100:1049, 1970) (0.47% Ca)+vitamins AEK for one week followed by Diet 11 (0.02% Ca)+vitamins AEK for 3 weeks. The rats were then switched to the same diet containing 0.47% Ca for one week followed by two weeks on the same diet containing 0.02% Ca. Dose administration began during the last week on 0.02% calcium diet. Four consecutive ip doses were given approximately 24 hours apart. Twenty-four hours after the last dose, blood was collected from the severed neck and the concentration of serum calcium determined by atomic absorption spectrometry as a measure of bone calcium mobilization. The first 10 cm of the intestine was also collected for intestinal calcium transport analysis using the everted gut sac method.

[2] = system: Human promyelocytic leukemia (HL60) cells; test: HL-60 cell differentiation (nitro blue tetrazolium reduction); type: cell-based; details: for EC50: 4 days treatment, NBT reduction; for potency on HL-60 cell differentiation compared to 1,25(OH)2D3: in words
Protocol: Serial dilutions were prepared so that a range of drug concentrations could be tested without changing the final concentration of ethanol 0.2%) present in the cell cultures.
Human promyelocytic leukemia (HL60) cells were grown in RPMI-1640 medium containing 10% fetal bovine serum. The cells were incubated at 37° C. in the presence of 5% CO2.
HL60 cells were plated at 1.2×10^5 cells/ml. Eighteen hours after plating, cells in duplicate were treated with drug. Four days later, the cells were harvested and a nitro blue tetrazolium reduction assay was performed (Collins et al., 1979; J. Exp. Med. 149:969-974). The percentage of differentiated cells was determined by counting a total of 200 cells and recording the number that contained intracellular black-blue formazan deposits. Verification of differentiation to monocytic cells was determined by measuring phagocytic activity (data not shown).

[3] = target: T1, full-length recombinant rat vitamin D receptor (Rattus norvegicus, UniProt P13053); test: Vitamin D receptor competitive binding with [3H]-1,25(OH)2D3; details: full-length recombinant rat VDR; for Ki: 1 nM radioligand, read-out: Ki, competition with [3H]-1,25(OH)2D3 for binding to the vitamin D receptor; for binding affinity to the receptor compared to 1,25-(OH)2D3: in words
T1 construct: Full-length recombinant rat receptor was expressed in E. coli BL21 (DE3) Codon Plus RIL cells; His tag (histidine tag) (C); made in house; host or cells: E. coli BL21 (DE3) Codon Plus RIL
T1 sequence (P13053 1-423): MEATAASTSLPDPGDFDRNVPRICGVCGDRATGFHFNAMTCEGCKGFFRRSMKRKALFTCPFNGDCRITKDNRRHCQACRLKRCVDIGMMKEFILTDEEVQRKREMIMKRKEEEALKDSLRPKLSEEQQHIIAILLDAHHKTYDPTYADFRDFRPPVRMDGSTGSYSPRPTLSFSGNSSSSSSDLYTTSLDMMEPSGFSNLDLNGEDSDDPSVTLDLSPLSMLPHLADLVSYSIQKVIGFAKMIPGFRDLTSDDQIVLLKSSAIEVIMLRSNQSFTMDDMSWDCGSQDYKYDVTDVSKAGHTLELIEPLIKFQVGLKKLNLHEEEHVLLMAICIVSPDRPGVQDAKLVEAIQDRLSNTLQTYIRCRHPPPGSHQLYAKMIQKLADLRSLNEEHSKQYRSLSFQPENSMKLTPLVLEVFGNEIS
Protocol: Full-length recombinant rat receptor was expressed in E. coli BL21 (DE3) Codon Plus RIL cells and purified to homogeneity using two different column chromatography systems. The first system was a nickel affinity resin that utilizes the C-terminal histidine tag on this protein. The protein that was eluted from this resin was further purified using ion exchange chromatography (S-Sepharose Fast Flow). Aliquots of the purified protein were quick frozen in liquid nitrogen and stored at −80° C. until use. For use in binding assays, the protein was diluted in TEDK50 (50 mM Tris, 1.5 mM EDTA, pH7.4, 5 mM DTT, 150 mM KCl) with 0.1% Chaps detergent. The receptor protein and ligand concentration was optimized such that no more than 20% of the added radiolabeled ligand was bound to the receptor.
Radiolabeled and unlabeled ligands were added to 100 mcl of the diluted protein at a final ethanol concentration of ≦10%, mixed and incubated overnight on ice to reach binding equilibrium. The following day, 100 mcl of hydroxylapatite slurry (50%) was added to each tube and mixed at 10-minute intervals for 30 minutes. The hydroxylapaptite was collected by centrifugation and then washed three times with Tris-EDTA buffer (50 mM Tris, 1.5 mM EDTA, pH 7.4) containing 0.5% Titron X-100. After the final wash, the pellets were transferred to scintillation vials containing 4 ml of Biosafe II scintillation cocktail, mixed and placed in a scintillation counter. Total binding was determined from the tubes containing only radiolabeled ligand.

[4] = Intestinal calcium transport (everted gut sac method) in vitamin D-deficient rats; type: in vivo, rat; details: 0.02% Ca diet, 4 consecutive ip doses, compared to 1,25(OH)2D3
Protocol: as §1

| EC50 ([2]; Homo sapiens, HL-60, 96 h) [nM] | Ki [3] [nM] | binding affinity to the receptor compared to 1,25-(OH)2D3 [3] | SMILES | bone calcium mobilization (serum calcium) at 87 pmol [1] | bone calcium mobilization activity (serum calcium) [1] | potency on HL-60 cell differentiation compared to 1,25(OH)2D3 [2] | bone calcium mobilization (serum calcium) at 780 pmol [1] | intestinal calcium transport activity [4] | EC50 [2] [nM] |
| --- | --- | --- | --- | --- | --- | --- | --- | --- | --- |
| > 100 | 0.9 | about the same affinity | C=C1CC(=C)[C@H](O)C/C1=C/C=C1\CCC[C@]2(C)[C@@H]([C@H](C)CCCC(C)(C)O)CC[C@@H]12 [1D-QM, (20R)-25-hydroxy-2-methylene-vitamin D3] | little or no mobilization of bone calcium | less potent than the native hormone | almost as potent as 1,25(OH)2D3 |  |  |  |
| 10 | 0.2 | about the same affinity | C=C1CC(=C)[C@H](O)C/C1=C/C=C1\CCC[C@]2(C)[C@@H]([C@@H](C)CCCC(C)(C)O)CC[C@@H]12 [1D-QMS, (20S)-25-hydroxy-2-methylene-vitamin D3] |  | about the same potency as the native hormone | almost as potent as 1,25(OH)2D3 | significant mobilization of bone calcium | about equivalent to 1,25(OH)2D3 |  |
|  |  |  | C=C1/C(=C\C=C2/CCC[C@]3(C)[C@@H]([C@H](C)CCCC(C)(C)O)CC[C@@H]23)C[C@@H](O)C[C@@H]1O [1α,25-dihydroxyvitamin D3, reference compound] | significant increases in serum calcium | increased serum calcium levels |  | significant increases in serum calcium |  | 3 |
